We go through eleven compounds from patent publication US6608086B2, “Dihydropyridines and new uses thereof” (Synaptic Pharmaceutical Corporation, priority 1993, dated 2003).

Counter-ions that a name gives are not always drawn. Like-named read-outs stand apart in the source and are kept apart here.

One assay addresses T1, α2C receptor (Homo sapiens, UniProt P18825).
T1 construct: host or cells: LM(tk-) cells, line L-α2C
T1 sequence (P18825 1-462): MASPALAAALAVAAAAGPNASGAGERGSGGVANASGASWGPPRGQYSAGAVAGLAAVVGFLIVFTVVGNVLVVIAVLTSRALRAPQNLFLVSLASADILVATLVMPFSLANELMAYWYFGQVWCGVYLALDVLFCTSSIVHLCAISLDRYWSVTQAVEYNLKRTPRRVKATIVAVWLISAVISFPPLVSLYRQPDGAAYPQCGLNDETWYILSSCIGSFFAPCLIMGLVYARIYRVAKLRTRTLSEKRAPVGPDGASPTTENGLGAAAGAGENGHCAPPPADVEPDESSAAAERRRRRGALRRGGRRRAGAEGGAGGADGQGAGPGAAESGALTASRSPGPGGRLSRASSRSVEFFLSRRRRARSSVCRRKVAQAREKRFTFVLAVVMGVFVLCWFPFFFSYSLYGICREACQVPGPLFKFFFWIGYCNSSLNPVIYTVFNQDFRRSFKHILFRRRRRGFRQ
The assay can be described thus: Competition binding, [3H]rauwolscine, human α2C receptor. The essentials:
(§1)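 Lysates of LM(tk−) cells stably expressing human α2A, α2B or α2C receptors in 25 mM glycylglycine pH 7.6. Equilibrium competition against 0.5 nM [3H]rauwolscine, with 10 μM phentolamine defining nonspecific binding. Bound ligand separated by GF/B filtration.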

The target in assay [1] is T2, α1B Human Adrenergic Receptor (Homo sapiens, UniProt P35368).
T2 construct: The entire coding region of α1B (1563 bp); expressed in transfected cells
T2 sequence (P35368 1-520): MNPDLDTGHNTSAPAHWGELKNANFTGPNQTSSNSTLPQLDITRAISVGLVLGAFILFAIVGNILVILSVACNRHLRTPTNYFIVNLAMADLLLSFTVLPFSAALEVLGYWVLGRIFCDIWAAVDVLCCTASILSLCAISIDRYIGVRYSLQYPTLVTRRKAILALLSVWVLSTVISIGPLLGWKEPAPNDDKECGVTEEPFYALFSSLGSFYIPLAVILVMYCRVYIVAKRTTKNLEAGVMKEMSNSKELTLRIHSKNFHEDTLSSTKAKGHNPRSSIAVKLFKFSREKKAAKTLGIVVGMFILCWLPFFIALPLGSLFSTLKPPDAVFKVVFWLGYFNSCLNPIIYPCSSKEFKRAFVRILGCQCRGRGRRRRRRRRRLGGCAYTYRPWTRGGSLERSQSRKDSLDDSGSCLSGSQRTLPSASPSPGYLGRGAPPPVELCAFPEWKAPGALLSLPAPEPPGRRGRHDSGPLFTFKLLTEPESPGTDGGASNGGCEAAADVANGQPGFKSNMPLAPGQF
The assay can be described thus: Radioligand binding, [3H]prazosin, cloned human α1B adrenergic receptor. The essentials:
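[3H]prazosin (0.5 nM) binding was run for 20 min at 37° C in pH 7.5 Tris/MgCl2/ascorbate buffer on membranes of LM(tk−) cells stably expressing the cloned receptor. Filtration through GF/B ended the reaction; 10 μM phentolamine gave nonspecific binding.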

For the next assay, the target named is T3, α2B receptor (Homo sapiens, UniProt P18089).
T3 construct: host or cells: LM(tk-) cells, line L-NGC-α2B
T3 sequence (P18089 1-450): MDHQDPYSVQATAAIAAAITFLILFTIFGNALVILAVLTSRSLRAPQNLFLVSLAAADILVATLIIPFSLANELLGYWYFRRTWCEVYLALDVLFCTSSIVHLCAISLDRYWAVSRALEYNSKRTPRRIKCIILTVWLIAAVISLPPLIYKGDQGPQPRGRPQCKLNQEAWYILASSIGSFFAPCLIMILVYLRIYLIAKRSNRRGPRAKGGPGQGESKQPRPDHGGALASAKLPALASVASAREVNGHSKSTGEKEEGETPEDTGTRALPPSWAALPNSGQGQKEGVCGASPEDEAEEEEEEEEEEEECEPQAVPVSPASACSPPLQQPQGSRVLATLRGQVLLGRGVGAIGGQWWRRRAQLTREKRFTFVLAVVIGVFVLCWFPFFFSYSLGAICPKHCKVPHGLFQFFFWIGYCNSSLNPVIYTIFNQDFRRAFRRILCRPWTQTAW
The experiment in a line: Competition binding, [3H]rauwolscine, human α2B receptor. The essentials: as §1

The target in a further assay is T4, α2A receptor (Homo sapiens, UniProt P08913).
T4 construct: host or cells: LM(tk-) cells, line L-α2A
T4 sequence (P08913 1-465): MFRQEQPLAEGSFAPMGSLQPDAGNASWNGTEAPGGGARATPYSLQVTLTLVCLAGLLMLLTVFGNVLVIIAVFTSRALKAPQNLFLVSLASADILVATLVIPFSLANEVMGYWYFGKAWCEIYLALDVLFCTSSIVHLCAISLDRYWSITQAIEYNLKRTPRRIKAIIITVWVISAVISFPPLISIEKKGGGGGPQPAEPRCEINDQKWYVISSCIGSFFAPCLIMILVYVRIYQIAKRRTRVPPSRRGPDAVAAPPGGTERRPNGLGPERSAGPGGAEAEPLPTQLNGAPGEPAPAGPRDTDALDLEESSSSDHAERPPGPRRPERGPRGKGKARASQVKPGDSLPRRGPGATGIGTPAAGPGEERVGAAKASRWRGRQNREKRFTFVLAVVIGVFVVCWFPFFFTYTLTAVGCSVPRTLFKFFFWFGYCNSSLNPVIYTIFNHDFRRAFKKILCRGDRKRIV
The experiment in a line: Competition binding, [3H]rauwolscine, human α2A receptor. The essentials:
as §1

[2] abbreviates: [3H]rauwolscine, LM(tk-) cell line L-α2C, SEM and n in lines below, read-out: pKi alpha-2 2c (converted).
Setting [3] is: cloned human receptor in LM(tk-) cell membranes, SEM and n in lines below, read-out: pKi alpha-1 1b (converted).
Setting [4] is: [3H]rauwolscine, LM(tk-) cell line L-NGC-α2B, SEM and n in lines below, read-out: pKi alpha-2 2b (converted).
Setting [5] is: [3H]rauwolscine, LM(tk-) cell line L-α2A, SEM and n in lines below, read-out: pKi alpha-2 2a (converted).
The mark [6] stands for this setting: [3H]rauwolscine, human receptor, LM(tk-) cell lysates, mean, read-out: PKi alpha-2 2c (converted).
[7] abbreviates: PKi alpha-1 1b, cloned human receptor, LM(tk-) cell membranes, mean.
Setting [8] is: PKi alpha-2 2b, [3H]rauwolscine, human receptor, LM(tk-) cell lysates, mean.
Setting [9] is: [3H]rauwolscine, human receptor, LM(tk-) cell lysates, mean, read-out: PKi alpha-2 2a (converted).
Where [10] appears, read: cloned human receptor, LM(tk-) cell membranes, mean, read-out: PKi alpha-1 1b (converted).
[11] abbreviates: cloned human receptor in LM(tk-) cell membranes, SEM and n in lines below.

Turning to `COc1cc2c(cc1OC)CN(CCCNC(=O)C1=C(C)NC(C)=C(C(N)=O)C1c1ccc([N+](=O)[O-])cc1)CC2` (centres unmarked) [Example 58, 5-Carboxamido-1,4-dihydro-3-{N-[3-(1,2,3,4-tetrahydro-6,7-dimethoxyisoquinolin-2-yl)propyl]}carboxamido-2,6-dimethyl-4-(4-nitrophenyl)pyridine hydrochloride], the Ki at α2C receptor (setting [2]) was 50.1 nM; in assay [1] (setting [3]), 2290 nM; on α2B receptor (setting [4]) it was 1450 nM; at α2A receptor (setting [5]), 8.32 nM.

For `CCC1=C(C(N)=O)C(c2ccc([N+](=O)[O-])cc2)C(C(=O)NCCCN2CCC(c3ccccc3)(c3ccccc3)CC2)=C(CCCCN)N1` (centres unmarked) [Example 171, 2-(4-Aminobutyl)-5-carboxamido-6-ethyl-1,4-dihydro-4-(4-nitrophenyl)-3-{N-[3-(4,4-diphenylpiperidin-1-yl)propyl]}carboxamidopyridine], the Ki was 575 nM on α2C receptor (setting [6]), 617 nM in assay [1] (setting [7]), 2000 nM at α2B receptor (setting [8]) and 1100 nM at α2A receptor (setting [9]).

As for `CCC1=C(C(N)=O)C(c2ccc([N+](=O)[O-])cc2)C(C(=O)NCCCN2CCC(O)(c3ccccc3)CC2)=CN1CC.Cl.O` (centres unmarked) [Example 101, 5-Carboxamido-1,6-diethyl-1,4-dihydro-3-{N-[3-(4-hydroxy-4-phenylpiperidin-1-yl)propyl]}carboxamido-4-(4-nitrophenyl)pyridine hydrochloride hydrate], the “pKi alpha-2 2c” value at α2C receptor ([3H]rauwolscine, human α2C receptor, LM(tk−) cells) amounted to 6.04. For the same compound, in assay [1] (cloned human α1B receptor, LM(tk−) cell membranes), the “pKi alpha-1 1b” value stood at 6.22. In addition, the “pKi alpha-2 2b” value at α2B receptor ([3H]rauwolscine, human α2B receptor, LM(tk−) cells) is recorded as 6.18. For the same compound, the “pKi alpha-2 2a” value on α2A receptor ([3H]rauwolscine, human α2A receptor, LM(tk−) cells) stood at 5.89.

As for `CC1=C(C(N)=O)C(c2ccc([N+](=O)[O-])cc2)C(C(=O)NCCCN2CCC(C(=O)O)(c3ccccc3)CC2)=C(C)N1` (centres unmarked) [Example 210, 5-Carboxamido-3-{N-[3-(4-carboxy-4-phenylpiperidin-1-yl)propyl]}carboxamido-1,4-dihydro-2,6-dimethyl-4-(4-nitrophenyl)pyridine], the Ki at α2C receptor (PKi alpha-2 2c) is 21900 nM; in assay [1] (setting [10]), 44700 nM; at α2B receptor (PKi alpha-2 2b) it was 23400 nM; on α2A receptor, 11000 nM.

For the compound `COC(=O)C1=C(C)NC(C)=C(C(=O)NCCCCN2CCC(c3ccccc3)(c3ccccc3)CC2)C1c1ccc([N+](=O)[O-])cc1.Cl.O` (centres unmarked) [Example 53, 1,4-Dihydro-3-methoxycarbonyl-2,6-dimethyl-4-(4-nitrophenyl)-5-{N-[4-(4,4-diphenylpiperidin-1-yl)butyl]}carboxamidopyridine hydrochloride hydrate], the “pKi alpha-2 2c” value on α2C receptor ([3H]rauwolscine, LM(tk-) cell line L-α2C, SEM and n in lines below) was determined as 6.67. The “pKi alpha-1 1b” value in assay [1] (setting [11]) is 6.87. Further, the “pKi alpha-2 2b” value on α2B receptor ([3H]rauwolscine, LM(tk-) cell line L-NGC-α2B, SEM and n in lines below) was 6.34. Besides, the “pKi alpha-2 2a” value at α2A receptor ([3H]rauwolscine, LM(tk-) cell line L-α2A, SEM and n in lines below) is given as 6.18.

Regarding `CCOC(=O)C1(c2ccccc2)CCN(CCCNC(=O)C2=C(COCCN)NC(CC)=C(C(=O)NC)C2c2ccc([N+](=O)[O-])cc2)CC1` (centres unmarked) [Example 194, 2-[(2-Aminoethoxy)methyl]-3-{N-[3-(4-ethoxycarbonyl-4-phenylpiperidin-1-yl)propyl]}carboxamido-1,4-dihydro-6-ethyl-5-(N-methyl) carboxamido-4-(4-nitrophenyl) pyridine], the Ki at α2C receptor (setting [6]) is 1070 nM; in assay [1] (setting [10]), 2690 nM; at α2B receptor ([3H]rauwolscine, human receptor, LM(tk-) cell lysates, mean, read-out: PKi alpha-2 2b (converted)), 5750 nM; at α2A receptor (setting [9]), 3160 nM.

Take `CCC1=C(C(=O)NC)C(c2ccc([N+](=O)[O-])cc2)C(C(=O)NCCCN2CCC(C(=O)OC)(c3ccccc3)CC2)=C(CC)N1` (centres unmarked) [Example 179, 2,6-Diethyl-1,4-dihydro-3-{N-[3-(4-methoxycarbonyl-4-phenyl-piperidin-1-yl)propyl]}carboxamido-5-(N-methyl)carboxamido-4-(4-nitrophenyl)pyridine]: the Ki is 1450 nM at α2C receptor (PKi alpha-2 2c), 1070 nM in assay [1] (setting [10]), 1860 nM on α2B receptor (PKi alpha-2 2b) and 3310 nM at α2A receptor.

As for `CC1=C(C(N)=O)C(c2cccc([N+](=O)[O-])c2)C(C(=O)NCCCN2CCC(c3ccccc3)CC2)=C(C)N1` (centres unmarked) [Example 62], the Ki on α2C receptor (setting [2]) is 49 nM; in assay [1] (setting [3]) it was 316 nM; at α2B receptor (setting [4]) it was 57.5 nM; on α2A receptor (setting [5]), 24.5 nM.

With `CCC1=C(C(=O)NC)C(c2ccc([N+](=O)[O-])cc2)C(C(=O)NCCCN2CCC(c3ccccc3)(c3ccccc3)CC2)=C(CCCCN)N1` (centres unmarked) [Example 172, 2-(4-Aminobutyl)-6-ethyl-1,4-dihydro-5-(N-methyl)carboxamido-4-(4-nitrophenyl)-3-{N-[3-(4,4-diphenylpiperidin-1-yl)propyl]}carboxamidopyridine], the Ki is 692 nM at α2C receptor (setting [6]), 617 nM in assay [1] (setting [7]), 3470 nM at α2B receptor (setting [8]) and 2340 nM on α2A receptor (setting [9]).

As for “5-Acetyl-1,4-dihydro-2,6-dimethyl-4-(4-nitrophenyl)-3-[3-(4,4-diphenylpiperidin-1-yl)propoxy]carbonylpyridine hydrochloride hemihydrate [Example 49]”, on α2C receptor, the “pKi alpha-2 2c” value is listed as 6.86. The “pKi alpha-1 1b” value in assay [1] (setting [11]) came out at 6.72. Besides, the “pKi alpha-2 2b” value on α2B receptor was 6.42. Also, the “pKi alpha-2 2a” value at α2A receptor is on record as 6.63.

`COC(=O)C1=C(C)NC(C)=C(C(=O)NCCCN2CCC(c3ccccc3)CC2)C1c1ccc([N+](=O)[O-])cc1` (single isomer, unassigned; (+)) [(+)-45, 1,4-Dihydro-3-methoxycarbonyl-2,6-dimethyl-4-(4-nitrophenyl)-5-{N-[3-(4-phenylpiperidin-1-yl)propyl]}carboxamidopyridine hydrochloride hemihydrate]: the Ki was 22.4 nM at α2C receptor (setting [2]), 57.5 nM in assay [1] (setting [3]), 91.2 nM at α2B receptor (setting [4]) and 240 nM at α2A receptor (setting [5]).
